Assay [1] has as its target T1, p300 (Homo sapiens, UniProt Q09472).
T1 construct: host or cells: A549 P300 HiBit cells
The experiment in a line: P300 degradation, HiBit technology in A549 P300 HiBit cells (2 h). The class given is cell-based. The conditions noted are these: 2 hrs post treatment; for Dmax: A549, A549 P300 HiBit cells. In short, it runs like this:
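A549 HiBiT knock-in cells seeded overnight at 37 °C, 5% CO2 in F-12K with 10% heat-inactivated FBS, then given serial dilutions of compound from 10 mM DMSO stocks. Lytic HiBiT detection reagent added for 10 min at room temperature; luminescence read. Potency and Dmax reported.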

The target of assay [2] is T2, CBP (Homo sapiens, UniProt Q92793).
T2 construct: host or cells: A549 CBP HiBit cells
The experiment in a line: CBP degradation, HiBit technology in A549 CBP HiBit cells (24 h). The class given is cell-based. Particulars: 24 hrs post treatment. The procedure:
p300 and CBP degradation potency and Dmax were determined using in cell western (ICW) assay technology in H1299 cells or HiBit technology in A549 HiBit cells.
A549 P300 HiBit and A549 CBP HiBit cells were plated in separate 384-well, TC treated, white-opaque, flat-bottomed microplate. Cells were plated at a cell density of 0.2×10^4 cells per well in assay media comprised of F-12K, 10% heat inactivated FBS, and 1% penicillin/streptomycin. Assay microplates containing HiBit cells were placed in a 37° C., 5% CO2, tissue culture incubator and left to equilibrate overnight. The next day cells were treated with serial dilutions of test compound made up of 10 mM stock solutions in DMSO. 384-Well plates containing treated cells were then placed back into a 37° C., 5% CO2, tissue culture incubator. Assay microplates containing A549 P300 HiBit cells were incubated for 2 hrs post treatment before P300 destruction was assessed, while microplates containing A549 CBP HiBit cells were incubated for 24 hrs post treatment before CBP destruction was determined. On the day of each assay time point, microplates were removed from the tissue culture incubator and prepared HiBit Lytic detection buffer (Promega, cat #N3O40) was added to each plate. Plates were covered with aluminum foil and incubated for ten minutes at room temperature on an orbital shaker. After incubation, luminescent signal of each plate was measured using the Envision instrument (Perkin Elmer).

Results on 12 compounds are retold here after patent publication US20250114345A1, “COMPOUNDS AND COMPOSITIONS AS CBP/P300 DEGRADERS AND USES THEREOF” (Oncopia Therapeutics, Inc. d/b/a/ SK Life Science Labs, priority 2023, published 2025).

Some results are limits rather than exact numbers.

T2 sequence (Q92793 whole entry): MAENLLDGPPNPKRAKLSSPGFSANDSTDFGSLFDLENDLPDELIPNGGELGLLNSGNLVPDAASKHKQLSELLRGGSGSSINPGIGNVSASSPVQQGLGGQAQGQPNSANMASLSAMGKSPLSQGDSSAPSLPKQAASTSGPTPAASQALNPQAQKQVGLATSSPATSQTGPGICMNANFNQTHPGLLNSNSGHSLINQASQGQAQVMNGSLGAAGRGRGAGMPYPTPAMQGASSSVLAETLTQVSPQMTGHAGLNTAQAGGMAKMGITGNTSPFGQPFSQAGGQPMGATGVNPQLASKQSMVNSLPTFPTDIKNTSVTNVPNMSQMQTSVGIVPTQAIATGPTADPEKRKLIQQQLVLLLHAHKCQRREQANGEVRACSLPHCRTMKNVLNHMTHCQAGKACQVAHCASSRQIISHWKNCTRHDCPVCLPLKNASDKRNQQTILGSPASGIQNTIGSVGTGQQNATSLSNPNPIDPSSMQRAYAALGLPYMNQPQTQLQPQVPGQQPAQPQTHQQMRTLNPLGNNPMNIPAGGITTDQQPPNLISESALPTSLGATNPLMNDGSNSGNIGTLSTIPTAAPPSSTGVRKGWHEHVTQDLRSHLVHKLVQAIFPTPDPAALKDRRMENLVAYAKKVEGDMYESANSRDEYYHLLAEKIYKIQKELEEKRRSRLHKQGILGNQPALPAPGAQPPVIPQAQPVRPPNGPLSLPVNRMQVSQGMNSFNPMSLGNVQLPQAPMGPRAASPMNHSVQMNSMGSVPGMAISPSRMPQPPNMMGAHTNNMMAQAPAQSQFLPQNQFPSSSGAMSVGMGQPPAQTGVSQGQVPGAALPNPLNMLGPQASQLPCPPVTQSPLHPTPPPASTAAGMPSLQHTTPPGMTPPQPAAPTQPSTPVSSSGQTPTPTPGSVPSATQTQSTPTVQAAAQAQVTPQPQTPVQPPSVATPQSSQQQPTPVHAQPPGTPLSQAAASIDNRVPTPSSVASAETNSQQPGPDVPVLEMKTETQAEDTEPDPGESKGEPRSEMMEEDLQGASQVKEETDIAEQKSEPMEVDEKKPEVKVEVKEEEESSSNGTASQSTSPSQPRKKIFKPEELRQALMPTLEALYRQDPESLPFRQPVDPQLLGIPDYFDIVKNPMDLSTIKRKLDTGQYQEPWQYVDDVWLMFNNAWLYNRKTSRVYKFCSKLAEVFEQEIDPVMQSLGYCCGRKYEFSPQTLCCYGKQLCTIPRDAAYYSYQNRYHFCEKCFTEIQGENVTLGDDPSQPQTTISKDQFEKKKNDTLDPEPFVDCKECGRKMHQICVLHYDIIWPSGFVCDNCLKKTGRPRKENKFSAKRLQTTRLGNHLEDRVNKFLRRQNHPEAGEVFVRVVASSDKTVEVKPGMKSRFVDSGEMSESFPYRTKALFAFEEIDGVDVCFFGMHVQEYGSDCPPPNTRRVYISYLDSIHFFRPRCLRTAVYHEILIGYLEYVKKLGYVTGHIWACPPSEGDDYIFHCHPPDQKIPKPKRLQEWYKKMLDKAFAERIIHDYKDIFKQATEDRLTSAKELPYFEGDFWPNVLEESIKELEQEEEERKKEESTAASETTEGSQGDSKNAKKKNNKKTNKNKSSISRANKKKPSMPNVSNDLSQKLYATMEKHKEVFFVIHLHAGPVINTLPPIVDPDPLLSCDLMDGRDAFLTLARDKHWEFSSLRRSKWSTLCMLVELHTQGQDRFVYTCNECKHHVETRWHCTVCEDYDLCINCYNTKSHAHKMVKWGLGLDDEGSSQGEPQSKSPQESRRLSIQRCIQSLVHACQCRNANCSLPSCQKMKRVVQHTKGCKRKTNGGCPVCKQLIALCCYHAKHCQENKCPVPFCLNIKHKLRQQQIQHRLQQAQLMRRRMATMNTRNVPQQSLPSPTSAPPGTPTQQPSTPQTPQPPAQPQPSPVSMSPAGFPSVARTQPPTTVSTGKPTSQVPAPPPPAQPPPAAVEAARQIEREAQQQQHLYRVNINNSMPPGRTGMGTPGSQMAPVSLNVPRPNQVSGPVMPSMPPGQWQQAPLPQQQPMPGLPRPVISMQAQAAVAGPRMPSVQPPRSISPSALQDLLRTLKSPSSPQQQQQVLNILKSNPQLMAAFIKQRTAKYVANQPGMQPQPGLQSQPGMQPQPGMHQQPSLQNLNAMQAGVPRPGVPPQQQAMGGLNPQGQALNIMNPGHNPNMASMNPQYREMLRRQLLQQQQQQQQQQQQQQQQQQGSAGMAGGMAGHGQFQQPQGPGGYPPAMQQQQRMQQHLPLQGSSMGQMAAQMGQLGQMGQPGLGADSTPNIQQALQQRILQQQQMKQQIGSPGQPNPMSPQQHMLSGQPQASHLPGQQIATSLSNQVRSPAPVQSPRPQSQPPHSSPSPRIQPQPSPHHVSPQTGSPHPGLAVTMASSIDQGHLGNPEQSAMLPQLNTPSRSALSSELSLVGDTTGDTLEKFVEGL
T1 sequence (Q09472 whole entry): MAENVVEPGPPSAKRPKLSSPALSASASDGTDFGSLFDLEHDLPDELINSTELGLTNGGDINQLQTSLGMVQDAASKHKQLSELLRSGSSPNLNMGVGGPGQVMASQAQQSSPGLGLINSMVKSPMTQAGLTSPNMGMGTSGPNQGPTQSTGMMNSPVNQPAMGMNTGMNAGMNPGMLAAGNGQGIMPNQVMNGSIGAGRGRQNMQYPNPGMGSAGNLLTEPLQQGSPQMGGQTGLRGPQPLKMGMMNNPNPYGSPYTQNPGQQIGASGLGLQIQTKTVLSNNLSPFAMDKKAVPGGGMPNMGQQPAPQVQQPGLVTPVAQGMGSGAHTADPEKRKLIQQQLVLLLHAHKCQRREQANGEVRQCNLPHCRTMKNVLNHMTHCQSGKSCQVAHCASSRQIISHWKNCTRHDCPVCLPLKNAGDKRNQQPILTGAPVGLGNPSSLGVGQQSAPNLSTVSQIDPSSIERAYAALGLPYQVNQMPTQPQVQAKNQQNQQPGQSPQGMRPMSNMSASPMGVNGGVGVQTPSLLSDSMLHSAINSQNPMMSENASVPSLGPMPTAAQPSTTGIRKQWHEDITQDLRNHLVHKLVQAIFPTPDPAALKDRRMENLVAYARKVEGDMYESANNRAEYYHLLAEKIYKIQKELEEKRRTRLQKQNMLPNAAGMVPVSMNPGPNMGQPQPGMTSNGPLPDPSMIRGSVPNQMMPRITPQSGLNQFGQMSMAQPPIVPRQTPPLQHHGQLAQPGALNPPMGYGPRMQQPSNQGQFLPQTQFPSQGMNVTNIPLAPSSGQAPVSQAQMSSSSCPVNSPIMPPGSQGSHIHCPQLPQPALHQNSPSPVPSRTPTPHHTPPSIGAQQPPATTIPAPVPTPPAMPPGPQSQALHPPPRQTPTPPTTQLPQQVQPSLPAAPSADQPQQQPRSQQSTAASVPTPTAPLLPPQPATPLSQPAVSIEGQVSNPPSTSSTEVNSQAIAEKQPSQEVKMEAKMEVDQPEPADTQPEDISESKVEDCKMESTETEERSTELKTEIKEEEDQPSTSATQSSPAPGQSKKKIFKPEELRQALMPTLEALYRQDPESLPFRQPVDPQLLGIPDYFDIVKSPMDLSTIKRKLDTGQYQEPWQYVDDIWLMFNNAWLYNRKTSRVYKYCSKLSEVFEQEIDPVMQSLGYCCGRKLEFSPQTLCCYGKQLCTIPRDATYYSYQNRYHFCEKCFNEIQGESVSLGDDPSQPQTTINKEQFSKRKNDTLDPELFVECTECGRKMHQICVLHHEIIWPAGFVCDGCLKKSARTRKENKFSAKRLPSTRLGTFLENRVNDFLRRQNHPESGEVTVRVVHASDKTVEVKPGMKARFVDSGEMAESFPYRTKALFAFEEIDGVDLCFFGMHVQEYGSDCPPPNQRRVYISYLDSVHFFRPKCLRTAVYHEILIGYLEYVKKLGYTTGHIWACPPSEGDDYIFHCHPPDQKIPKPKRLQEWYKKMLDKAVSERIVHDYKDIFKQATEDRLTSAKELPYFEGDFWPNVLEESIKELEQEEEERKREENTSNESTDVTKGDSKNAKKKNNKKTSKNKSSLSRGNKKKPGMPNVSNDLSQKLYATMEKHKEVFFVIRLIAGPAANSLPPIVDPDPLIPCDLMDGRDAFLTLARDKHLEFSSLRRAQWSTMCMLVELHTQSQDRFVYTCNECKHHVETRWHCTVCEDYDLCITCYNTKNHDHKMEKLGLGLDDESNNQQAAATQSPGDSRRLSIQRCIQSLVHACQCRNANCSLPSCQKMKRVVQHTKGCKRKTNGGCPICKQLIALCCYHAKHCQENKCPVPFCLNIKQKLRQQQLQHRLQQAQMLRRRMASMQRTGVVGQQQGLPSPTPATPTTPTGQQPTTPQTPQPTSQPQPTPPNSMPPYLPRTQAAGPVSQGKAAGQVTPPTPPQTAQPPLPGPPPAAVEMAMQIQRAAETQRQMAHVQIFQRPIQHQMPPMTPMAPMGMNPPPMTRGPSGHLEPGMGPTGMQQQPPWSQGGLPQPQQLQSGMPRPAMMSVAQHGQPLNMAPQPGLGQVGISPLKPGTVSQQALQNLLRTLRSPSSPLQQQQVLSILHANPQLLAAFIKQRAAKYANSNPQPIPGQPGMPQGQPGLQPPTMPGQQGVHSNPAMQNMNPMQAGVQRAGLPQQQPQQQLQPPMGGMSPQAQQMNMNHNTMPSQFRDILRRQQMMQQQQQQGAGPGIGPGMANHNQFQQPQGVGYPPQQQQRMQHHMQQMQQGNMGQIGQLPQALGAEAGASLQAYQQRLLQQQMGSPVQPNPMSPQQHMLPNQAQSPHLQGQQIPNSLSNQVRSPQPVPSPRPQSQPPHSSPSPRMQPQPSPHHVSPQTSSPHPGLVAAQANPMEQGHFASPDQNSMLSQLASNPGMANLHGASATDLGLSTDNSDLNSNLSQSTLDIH

Turning to `Cc1cc2c(N3CCCc4nc(-c5ccc(C(=O)NCC#Cc6ccc7occ([C@H]8CCC(=O)NC8=O)c7c6)nc5)ncc43)nc(N3CCOCC3)cc2n(C)c1=O` [Example B72, (R)-5-(5-(1,3-dimethyl-7-morpholino-2-oxo-1,2-dihydro-1,6-naphthyridin-5-yl)-5,6,7,8-tetrahydropyrido[3,2-d]pyrimidin-2-yl)-N-(3-(3-(2,6-dioxopiperidin-3-yl)benzofuran-5-yl)prop-2-yn-1-yl)picolinamide], the Dmax was 60 to 79% in assay [1] and under 20% in assay [2]. For the same compound, the results for the DC50 in assay [1] (A549 P300 HiBit cells) and in assay [2] were 1 to 9.9 nM and over 1000 nM, respectively.
Turning to `CNC(=O)c1c[nH]c2ccc(-c3cccc4cc(-c5ccc(C(=O)NCC#Cc6ccc7occ(C8CCC(=O)NC8=O)c7c6)nc5)ncc34)cc12` (stereo not drawn) [Example C1, 5-(3-(6-((3-(3-(2,6-dioxopiperidin-3-yl)benzofuran-5-yl)prop-2-yn-1-yl)carbamoyl)pyridin-3-yl)isoquinolin-8-yl)-N-methyl-1H-indole-3-carboxamide], the Dmax in assay [1] is over 80%; in assay [2] it was under 20%. Further, the figures for the DC50 in assay [1] (A549 P300 HiBit cells) and in assay [2] were 1 to 9.9 nM and over 1000 nM, respectively.
As for `Cc1cc(-c2ncc3c(n2)OCCN3c2ccc3c(c2)n(C)c(=O)n3C)cnc1C(=O)NCC#Cc1ccc2occ(C3CCC(=O)NC3=O)c2c1` (stereo not drawn) [Example A92, 5-(5-(1,3-dimethyl-2-oxo-2,3-dihydro-1H-benzo[d]imidazol-5-yl)-6,7-dihydro-5H-pyrimido[4,5-b][1,4]oxazin-2-yl)-N-(3-(3-(2,6-dioxopiperidin-3-yl)benzofuran-5-yl)prop-2-yn-1-yl)-3-methylpicolinamide], in assay [1] (A549 P300 HiBit cells), the DC50 was in the range of 1 to 9.9 nM and the “P300 A549 2 h HiBit DMax (%)” value is “A (“A”: > 80%)”. In assay [2], the DC50 is over 1000 nM and the Dmax is under 20%.
As for `CCc1cc(-c2cccc3cc(-c4ccc(C(=O)NCC#Cc5ccc6cnn(C7CCC(=O)NC7=O)c6c5)nc4)ncc23)c2cc(C)c(=O)n(C)c2c1` (stereo not drawn) [Example B5, N-(3-(1-(2,6-Dioxopiperidin-3-yl)-1H-indazol-6-yl)prop-2-yn-1-yl)-5-(8-(7-ethyl-1,3-dimethyl-2-oxo-1,2-dihydroquinolin-5-yl)isoquinolin-3-yl)picolinamide], the Dmax in assay [1] is over 80%; in assay [2], under 20%. Besides, the DC50 was 1 to 9.9 nM in assay [1] (A549 P300 HiBit cells) and over 1000 nM in assay [2].
On to `CC(C)c1cc(-c2cccc3cc(-c4ccc(C(=O)NCC#Cc5ccc6occ(C7CCC(=O)NC7=O)c6c5)nc4)ncc23)cc2c1n(C)c(=O)n2C` (stereo not drawn) [Example A23, N-(3-(3-(2,6-Dioxopiperidin-3-yl)benzofuran-5-yl)prop-2-yn-1-yl)-5-(8-(7-isopropyl-1,3-dimethyl-2-oxo-2,3-dihydro-1H-benzo[d]imidazol-5-yl)isoquinolin-3-yl)picolinamide], for which the Dmax in assay [1] is over 80%; in assay [2], under 20%. Moreover, the DC50 in assay [1] (A549 P300 HiBit cells) was 1 to 9.9 nM; in assay [2], over 1000 nM.
On the same counts, the results for `Cc1cc2c(N3CCCc4nc(-c5ccc(C(=O)NCC#Cc6cc7c(C8CCC(=O)NC8=O)nccc7o6)nc5)ncc43)cc(C(C)C)cc2n(C)c1=O` (stereo not drawn) [Example B157, N-(3-(4-(2,6-dioxopiperidin-3-yl)furo[3,2-c]pyridin-2-yl)prop-2-yn-1-yl)-5-(5-(7-isopropyl-1,3-dimethyl-2-oxo-1,2-dihydroquinolin-5-yl)-5,6,7,8-tetrahydropyrido[3,2-d]pyrimidin-2-yl) picolinamide] are over 80%, 20 to 39%, 1 to 9.9 nM and 10 to 99 nM.
With `Cc1cc2c(N3CCCc4nc(-c5cnc(C(=O)NCC#Cc6cc7c(C8CCC(=O)NC8=O)cccc7o6)cn5)ncc43)cc(C3CCOCC3)cc2n(C)c1=O` (stereo not drawn) [Example B87, 5-(5-(1,3-dimethyl-2-oxo-7-(tetrahydro-2H-pyran-4-yl)-1,2-dihydroquinolin-5-yl)-5,6,7,8-tetrahydropyrido[3,2-d]pyrimidin-2-yl)-N-(3-(4-(2,6-dioxopiperidin-3-yl)benzofuran-2-yl)prop-2-yn-1-yl)pyrazine-2-carboxamide], the Dmax in assay [1] is 60 to 79%; in assay [2], under 20%. The DC50 in assay [1] (A549 P300 HiBit cells) is 1 to 9.9 nM; in assay [2] it was over 1000 nM.
As to `Cn1c(=O)n(C)c2cc(N3CCCc4nc(-c5ccc(C(=O)NCC#Cc6cc7c(C8CCC(=O)NC8=O)cccc7o6)nc5)ncc43)ccc21` (stereo not drawn) [Example A226, 5-(5-(1,3-dimethyl-2-oxo-2,3-dihydro-1H-benzo[d]imidazol-5-yl)-5,6,7,8-tetrahydropyrido [3,2-d]pyrimidin-2-yl)-N-(3-(4-(2,6-dioxo-piperidin-3-yl)benzofuran-2-yl)prop-2-yn-1-yl)picolinamide], the Dmax in assay [1] is over 80%; in assay [2], under 20%. Further, the DC50 in assay [1] (A549 P300 HiBit cells) was under 1 nM; in assay [2] it was 100 to 999 nM.
For `COc1nc(-c2cnc(C(=O)NCC#Cc3cc4c(C5CCC(=O)NC5=O)cccc4o3)c(C)c2)ncc1Nc1cc(C2CCOCC2)cc2c1cc(C)c(=O)n2C` (stereo not drawn) [Example B20, 5-(5-((1,3-dimethyl-2-oxo-7-(tetrahydro-2H-pyran-4-yl)-1,2-dihydroquinolin-5-yl)amino)-4-methoxypyrimidin-2-yl)-N-(3-(4-(2,6-dioxopiperidin-3-yl)benzofuran-2-yl)prop-2-yn-1-yl)-3-methylpicolinamide], the Dmax in assay [1] was over 80%; in assay [2], under 20%. Further, the DC50 in assay [1] (A549 P300 HiBit cells) is 1 to 9.9 nM; in assay [2], over 1000 nM.
For `Cn1c(=O)n(C)c2c(C3CC3)cc(-c3cccc4cc(-c5ccc(C(=O)NCC#Cc6cc7c(C8CCC(=O)NC8=O)cccc7o6)nc5)ncc34)cc21` (stereo not drawn) [Example A261, 5-(8-(7-cyclopropyl-1,3-dimethyl-2-oxo-2,3-dihydro-1H-benzo[d]imidazol-5-yl)isoquinolin-3-yl)-N-(3-(4-(2,6-dioxopiperidin-3-yl)benzofuran-2-yl)prop-2-yn-1-yl)picolinamide], the Dmax is over 80% in assay [1] and under 20% in assay [2]. Moreover, the DC50 was 1 to 9.9 nM in assay [1] (A549 P300 HiBit cells) and over 1000 nM in assay [2].
As for `Cc1cc2c(N3CCOc4nc(-c5ccc(C(=O)NCC#Cc6cc7c(C8CCC(=O)NC8=O)cccc7o6)nc5)ncc43)cc(C3CCOCC3)nc2n(C)c1=O` (stereo not drawn) [Example B166, 5-(5-(6,8-dimethyl-7-oxo-2-(tetrahydro-2H-pyran-4-yl)-7,8-dihydro-1,8-naphthyridin-4-yl)-6,7-dihydro-5H-pyrimido[4,5-b][1,4]oxazin-2-yl)-N-(3-(4-(2,6-dioxopiperidin-3-yl)benzofuran-2-yl)prop-2-yn-1-yl) picolinamide], the greatest degradation seen (Dmax) was 60 to 79% in assay [1] and under 20% in assay [2]. In addition, the DC50 is 1 to 9.9 nM in assay [1] (A549 P300 HiBit cells) and over 1000 nM in assay [2].
On the same counts, the results for `CCc1cc(-c2cccc3cc(-c4ccc(C(=O)NCC#Cc5ccc6ncn(C7CCC(=O)NC7=O)c6c5)nc4)ncc23)c2cc(C)c(=O)n(C)c2c1` (stereo not drawn) [Example B2, N-(3-(1-(2,6-Dioxopiperidin-3-yl)-1H-benzo[d]imidazol-6-yl)prop-2-yn-1-yl)-5-(8-(7-ethyl-1,3-dimethyl-2-oxo-1,2-dihydroquinolin-5-yl)isoquinolin-3-yl)picolinamide] are 60 to 79%, under 20%, 1 to 9.9 nM and over 1000 nM.
